Results: the supplement of paper PMC10307832

What was measured:
Assay in all cases: relative viability (nuclei count vs DMSO), 5 days (fraction); higher = more cells survive
CX-5461 + Linsitinib = compound: Cc1cnc(CNC(=O)c2c(=O)c3ccc(N4CCCN(C)CC4)nc3n3c2sc2ccccc23)cn1 [CX-5461] + C[C@]1(O)C[C@@H](c2nc(-c3ccc4ccc(-c5ccccc5)nc4c3)c3c(N)nccn32)C1 [Linsitinib] (partner 1 µM)
Summary of the method: (§1)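 Values are medians from duplicate plates. Each reflects relative viability, defined as the nuclei count of treated wells over that of vehicle wells. Lung cancer cell lines in 1536-well plates were pin-tool dosed one day after seeding with one drug alone or with a fixed anchor-drug dose plus five library-drug doses (not always all listed) in √10 steps, then fixed, stained and imaged at 4× after 5 days.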

IMD-0354 + Dasatinib = compound: O=C(Nc1cc(C(F)(F)F)cc(C(F)(F)F)c1)c1cc(Cl)ccc1O [IMD-0354] + Cc1nc(Nc2ncc(C(=O)Nc3c(C)cccc3Cl)s2)cc(N2CCN(CCO)CC2)n1 [Dasatinib] (partner 0.075 µM)
Summary of the method: as §1

CX-5461 + Bortezomib = compound: Cc1cnc(CNC(=O)c2c(=O)c3ccc(N4CCCN(C)CC4)nc3n3c2sc2ccccc23)cn1 [CX-5461] + CC(C)C[C@H](NC(=O)[C@H](Cc1ccccc1)NC(=O)c1cnccn1)B(O)O [Bortezomib] (partner 0.002 µM)
Summary of the method: as §1

IMD-0354 + Palbociclib = compound: O=C(Nc1cc(C(F)(F)F)cc(C(F)(F)F)c1)c1cc(Cl)ccc1O [IMD-0354] + CC(=O)c1c(C)c2cnc(Nc3ccc(N4CCNCC4)cn3)nc2n(C2CCCC2)c1=O [Palbociclib] (partner 0.5 µM)
Summary of the method: as §1

Row | Cell Line | relative viability (CX-5461 + Linsitinib; first compound 0.03162 µM) | relative viability (CX-5461 + Linsitinib; first compound 0.3162 µM) | relative viability (CX-5461 + Linsitinib; first compound 1 µM) | relative viability (IMD-0354 + Dasatinib; first compound 0.04 µM) | relative viability (IMD-0354 + Dasatinib; first compound 0.1265 µM) | relative viability (IMD-0354 + Dasatinib; first compound 0.4 µM) | relative viability (IMD-0354 + Dasatinib; first compound 1.265 µM) | relative viability (IMD-0354 + Dasatinib; first compound 4 µM) | relative viability (CX-5461 + Bortezomib; first compound 0.01 µM) | relative viability (CX-5461 + Bortezomib; first compound 0.03162 µM) | relative viability (CX-5461 + Bortezomib; first compound 0.1 µM) | relative viability (CX-5461 + Bortezomib; first compound 0.3162 µM) | relative viability (CX-5461 + Bortezomib; first compound 1 µM) | relative viability (IMD-0354 + Palbociclib; first compound 0.04 µM) | relative viability (IMD-0354 + Palbociclib; first compound 0.1265 µM) | relative viability (IMD-0354 + Palbociclib; first compound 0.4 µM) | relative viability (IMD-0354 + Palbociclib; first compound 1.265 µM) | relative viability (IMD-0354 + Palbociclib; first compound 4 µM) | relative viability (CX-5461 + Linsitinib; first compound 0.01 µM) | relative viability (CX-5461 + Linsitinib; first compound 0.1 µM)
1 | NCI-H1651 | 0.755 | 0.714 | 0.11 | 0.515 | 0.363 | 0.26 | 0.0542 | 0.0748 | 0.899 | 0.896 | 0.816 | 0.969 | 0.404 | 0.504 | 0.507 | 0.415 | 0.516 | 0.182 | – | –
2 | NCI-H1666 | 0.982 | 0.82 | 0.459 | 0.94 | 0.912 | 0.651 | 0.345 | 0.351 | 0.839 | 0.741 | – | 0.758 | 0.505 | 0.737 | 0.616 | 0.601 | 0.57 | 0.495 | 0.787 | –
3 | NCI-H1734 | 0.97 | 0.772 | 0.868 | 0.516 | 0.4 | 0.343 | 0.195 | 0.134 | 0.948 | 1.18 | 0.838 | 0.751 | 0.45 | 0.352 | 0.352 | 0.314 | 0.232 | 0.196 | 1.01 | 0.901
4 | NCI-H1755 | 1.05 | 0.993 | 1.01 | 0.438 | 0.461 | 0.395 | 0.243 | 0.34 | 1.05 | 1.03 | 0.972 | 0.99 | 0.877 | 0.448 | 0.456 | 0.419 | 0.396 | 0.224 | 0.983 | 0.968
5 | NCI-H1792 | 0.58 | 0.565 | 0.545 | 0.906 | 0.69 | 0.545 | 0.406 | 0.416 | 0.935 | 1.16 | 0.966 | 0.965 | 0.848 | 0.69 | 0.61 | 0.258 | 0.579 | 0.431 | 0.54 | 0.485
6 | NCI-H1915 | 1.13 | 1.12 | 1.16 | 0.31 | 0.322 | 0.129 | 0.109 | 0.14 | 1.03 | 1.06 | 0.989 | 1.02 | 0.891 | 0.461 | 0.489 | 0.424 | 0.234 | 0.143 | 1.1 | 1.12
7 | NCI-H1975 | 0.983 | 1 | 0.629 | 0.421 | 0.398 | 0.233 | 0.128 | 0.135 | 0.361 | 0.357 | 0.357 | 0.358 | 0.154 | 0.752 | 0.569 | 0.306 | 0.165 | 0.178 | 1.06 | 0.784
8 | NCI-H1993 | 0.681 | 0.712 | 0.643 | 0.562 | 0.652 | 0.448 | 0.543 | 0.51 | 1.09 | 1.18 | 1.14 | 0.944 | 0.937 | 0.657 | 0.384 | 0.501 | 0.443 | 0.406 | 0.743 | 0.722
9 | NCI-H2009 | 1.14 | 1.19 | 0.804 | 0.367 | 0.292 | 0.263 | 0.109 | 0.0808 | 1.05 | 1.08 | 0.644 | 0.867 | 0.492 | 0.179 | 0.222 | 0.191 | 0.103 | 0.112 | 1.24 | 1.18
10 | NCI-H2023 | 0.744 | 0.599 | 0.162 | 0.713 | 0.497 | 0.361 | 0.108 | 0.113 | 1.04 | 0.825 | – | 0.52 | 0.0872 | 0.495 | 0.346 | 0.273 | 0.316 | 0.241 | 0.661 | –
11 | NCI-H2085 | 1.03 | 0.952 | 0.864 | 0.219 | 0.241 | 0.298 | 0.195 | 0.201 | 1.04 | 0.999 | 0.871 | 1.01 | 0.677 | 0.461 | 0.439 | 0.433 | 0.281 | 0.393 | 0.923 | 0.911
12 | NCI-H2087 | 0.999 | 0.811 | 1.05 | 0.828 | 0.896 | 0.312 | 0.122 | 0.151 | 0.812 | 0.884 | 0.781 | 1.07 | 0.525 | 0.238 | 0.196 | 0.21 | 0.104 | 0.0948 | 1.03 | 0.946
13 | NCI-H2126 | 0.727 | 0.731 | 0.679 | 0.587 | 0.666 | 0.387 | 0.216 | 0.237 | 1.12 | 1.15 | 1.15 | 1.09 | 1.06 | 0.35 | 0.361 | 0.364 | 0.316 | 0.311 | 0.728 | 0.71
14 | NCI-H2228 | 0.975 | 0.718 | 0.282 | 0.538 | 0.487 | 0.373 | 0.184 | 0.202 | 0.934 | 0.797 | 0.455 | 0.819 | 0.126 | 0.618 | 0.618 | 0.683 | 0.21 | 0.322 | 0.736 | 0.416
15 | NCI-H2347 | 1.03 | 0.582 | 0.795 | 0.321 | 0.308 | 0.278 | 0.162 | 0.229 | 1.06 | 1.21 | 0.836 | 0.854 | 0.941 | 0.39 | 0.418 | 0.362 | 0.41 | 0.405 | 0.963 | 1.04
16 | NCI-H2405 | 0.898 | 0.897 | 0.757 | 0.213 | 0.242 | 0.217 | 0.249 | 0.116 | 0.998 | 0.976 | 0.987 | 1.13 | 0.953 | 0.594 | 0.509 | 0.457 | 0.282 | 0.261 | 1.03 | 0.993
